Data reported in PubChem BioAssay (NCI).
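Following 48 hours of exposure in 96-well plates, responses at five concentrations were used to interpolate endpoints linearly. Here, GI50 denotes the concentration required for 50% inhibition of growth. Definition used: TGI = concentration required for complete inhibition of growth.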

Tests used:
Experiment in all cases: NCI-60 cell line screen, 48 h
OVCAR-8 ovarian = tested on: OVCAR-8 ovarian
NCI-H522 lung = tested on: NCI-H522 lung
RXF 393 renal = tested on: RXF 393 renal
SF-268 CNS = tested on: SF-268 CNS
EKVX NSCLC = tested on: EKVX NSCLC
HT29 colon = tested on: HT29 colon
MDA-MB-435 = tested on: MDA-MB-435
SF-295 CNS = tested on: SF-295 CNS
SK-MEL-28 melanoma = tested on: SK-MEL-28 melanoma
SR leukemia = tested on: SR leukemia
DU-145 prostate = tested on: DU-145 prostate
HOP-92 NSCLC = tested on: HOP-92 NSCLC
RPMI-8226 leukemia = tested on: RPMI-8226 leukemia
SW-620 colon = tested on: SW-620 colon
T-47D breast = tested on: T-47D breast
BT-549 breast = tested on: BT-549 breast
HCT-15 colon = tested on: HCT-15 colon

SMILES	TGI (OVCAR-8 ovarian)	TGI (NCI-H522 lung)	TGI (RXF 393 renal)	TGI (SF-268 CNS)	TGI (EKVX NSCLC)	TGI (HT29 colon)	TGI (MDA-MB-435)	TGI (SF-295 CNS)	TGI (SK-MEL-28 melanoma)	TGI (SR leukemia)	TGI (DU-145 prostate)	TGI (HOP-92 NSCLC)	TGI (RPMI-8226 leukemia)	TGI (SW-620 colon)	TGI (T-47D breast)	TGI (BT-549 breast)	TGI (HCT-15 colon)	GI50 (RPMI-8226 leukemia)
O=C(NCCCCCCCCNC(=O)c1cc(-c2ccccc2)nc2ccccc12)c1cc(-c2ccccc2)nc2ccccc12	> 100 µM	> 100 µM	84.4 µM	> 100 µM	> 100 µM	> 100 µM	> 100 µM	> 100 µM	> 100 µM	> 100 µM	> 100 µM	> 100 µM	> 100 µM	> 100 µM	> 100 µM	> 100 µM	> 100 µM	–
O=C(N=S(NC(=O)c1ccccc1)C(Cl)(Cl)Cl)c1ccccc1 (configuration not stated)	38.8 µM	51.1 µM	18 µM	> 100 µM	39.2 µM	36.3 µM	47.4 µM	> 59 µM	66.7 µM	> 73.4 µM	> 100 µM	> 100 µM	> 100 µM	15.9 µM	67.5 µM	32.4 µM	27 µM	–
CC1(C)CC(=O)c2c(nc3ccc4ccccc4c3c2-c2ccc(NC(=O)CCCC(=O)Nc3ccc(-c4c5c(nc6ccc7ccccc7c46)CC(C)(C)CC5=O)cc3)cc2)C1	> 100 µM	–	–	> 100 µM	> 100 µM	> 100 µM	> 100 µM	> 100 µM	> 100 µM	> 100 µM	> 100 µM	> 100 µM	> 100 µM	> 100 µM	> 100 µM	> 100 µM	> 100 µM	–
COC(=O)C1C(OC(=O)c2ccccc2)CC2CCC1N2C(N)=O (configuration not stated)	> 100 µM	> 100 µM	–	> 100 µM	> 100 µM	> 100 µM	> 100 µM	> 100 µM	> 100 µM	> 100 µM	> 100 µM	> 100 µM	> 100 µM	> 100 µM	> 100 µM	> 100 µM	> 100 µM	–
CC1(CCC2C=CCC2)CCCNC1=S (configuration not stated)	> 10 µM	–	> 10 µM	> 10 µM	> 10 µM	> 10 µM	> 10 µM	> 10 µM	> 10 µM	> 10 µM	> 10 µM	> 10 µM	> 10 µM	> 10 µM	> 10 µM	> 10 µM	> 10 µM	–
COC(=O)c1ccc2c(O)c(O)ccc2c1	37.2 µM	29.1 µM	31.4 µM	33.9 µM	53.5 µM	33.7 µM	3.3 µM	17.2 µM	31.4 µM	7.06 µM	30.1 µM	33.6 µM	61.2 µM	25.3 µM	42.6 µM	27.2 µM	27.8 µM	–
COC(=O)C1=CSC2(S1)C(C(=O)OC)=CSc1c2ssc1=Nc1ccccc1 (configuration not stated)	6.23 µM	3.4 µM	6.12 µM	> 100 µM	> 100 µM	5.85 µM	5.09 µM	7.09 µM	5.76 µM	3.56 µM	16.2 µM	–	2.87 µM	8.76 µM	> 100 µM	22.6 µM	–	–
Cc1c(/C=N/NC(=S)Nc2ccccc2Cl)c(=O)n(-c2ccccc2)n1C	84.1 µM	60.9 µM	47.9 µM	> 100 µM	> 100 µM	> 100 µM	> 100 µM	89.4 µM	> 100 µM	> 100 µM	> 100 µM	–	> 100 µM	> 100 µM	> 100 µM	> 100 µM	> 100 µM	–
O=C(CN1CCNCCN(CC(=O)N2CCCCC2)CCNCC1)N1CCCCC1	> 100 µM	> 100 µM	–	–	> 100 µM	> 100 µM	> 100 µM	> 100 µM	> 100 µM	> 100 µM	> 100 µM	> 100 µM	> 100 µM	> 100 µM	> 100 µM	> 100 µM	> 100 µM	–
Cc1ccc(/C=N/Nc2cnccn2)s1	> 100 µM	> 100 µM	> 100 µM	> 100 µM	> 100 µM	> 100 µM	> 100 µM	> 100 µM	> 100 µM	–	–	> 100 µM	> 100 µM	> 100 µM	> 100 µM	> 100 µM	> 100 µM	–
CN(C)c1ccc(N=Nc2ccc3nc[nH]c3c2)cc1	> 100 µM	51.1 µM	88.7 µM	54 µM	> 100 µM	37 µM	47.7 µM	57.3 µM	25.6 µM	87.5 µM	77.3 µM	–	59.2 µM	> 100 µM	> 100 µM	> 100 µM	70.4 µM	–
CC(=O)OCC(OC(C)=O)C(OC(C)=O)C(C=NN(C(C)=O)S(=O)(=O)c1ccc(/C=C2\NC(=O)NC2=O)cc1)OC(C)=O (configuration not stated)	> 100 µM	–	> 100 µM	> 100 µM	> 100 µM	> 100 µM	> 100 µM	> 100 µM	–	> 100 µM	> 100 µM	–	> 100 µM	> 100 µM	> 100 µM	> 100 µM	> 100 µM	> 100 µM
COc1c2c(cc3oc(C)cc(=O)c13)OC(=N)C(C(N)=O)C2CC(=O)c1ccc(N)cc1 (configuration not stated)	> 100 µM	> 100 µM	> 100 µM	> 100 µM	> 100 µM	–	> 100 µM	> 100 µM	> 100 µM	> 100 µM	> 100 µM	> 100 µM	> 100 µM	> 100 µM	> 100 µM	> 100 µM	> 100 µM	–
Fc1ccc2nc3n(c2c1)C(c1c(F)cccc1F)SC3 (configuration not stated)	> 100 µM	> 100 µM	> 100 µM	> 100 µM	–	> 100 µM	> 100 µM	> 100 µM	> 100 µM	76.2 µM	> 100 µM	> 100 µM	> 100 µM	> 100 µM	> 100 µM	> 100 µM	> 100 µM	–
